Measured values published in patent US20030119800A1, “Bone anabolic compounds and methods of use” (priority 2001, published 2003).
Starred links: 1 amine or outer side, 2 acyl side, 3 side chain; linkers in the order of their positions; H or OH if unused. Positions of bridges follow the written chain, without caps; N, C: chain ends. Non-standard residues stand in square brackets, D forms with d. Residues, ends and D or L forms follow the SMILES beside them. Chains are numbered I, II in the order given. Actinocin(9to1) = Cc1c2oc3c(C)ccc(C(=O)[*:1])c3nc-2c(C(=O)[*:2])c(N)c1=O; NMeV = CN[C@H](C(=O)O)C(C)C; Sar = CNCC(=O)O

Key:
[1] = tested on: osteoclasts generated in bone marrow cultures from adult female or male mice; assay: Osteoclast apoptosis in bone marrow derived cultures; assay type: cell-based, mouse
Protocol: (§1) Osteoblastic cells (A) were isolated from calvaria of neonatal female or male mice, the sex of which was determined by Southern blot analysis of liver DNA with a Y chromosome specific cDNA probe; and cultured as previously described. The ability of the indicated steroids to protect against etoposide induced apoptosis was determined as in FIG. 1D, lower panel. (B) Osteoclasts were generated in bone marrow cultures from adult female or male mice, and then treated with vehicle or the indicated concentrations of steroids for 24 hours at which point the number of cells undergoing apoptosis was determined. Representative results from 1 of 4 females and 1 of 4 males examined are shown. Each point represents the mean of triplicate determinations±SD. *p<0.05 vs. vehicle, by ANOVA. (C & D) Eight-month old Swiss Webster mice (n=8-10 per group) were sham-operated, ovariectomized (OVX) or orchidectomized (ORX). […] BMD and wet uterine or seminal vesicle weight was determined six weeks later. Bars indicate means±SD. *p<0.05 vs OVX or ORX.
FIG. 8 illustrates the pro-apoptotic effect of sex steroids on osteoclasts requires Src/ERK signaling. […] After 24 hours, the percentage of apoptotic osteoclasts was determined as in FIG. 7.
(§2) Quantification of apoptotic cells in vitro: Apoptosis of HeLa cells or calvaria-derived osteoblastic cells was quantified by direct visualization of changes in nuclear morphology or by trypan blue staining, respectively, as previously described (Kousteni et al, 2001). Apoptosis of osteoclasts, derived from bone marrow cells cultured with 30 ng/ml M-CSF and 30 ng/ml soluble RANK ligand, was quantified by measuring caspase 3 activity as previously described (Weinstein et al, 2002).

[2] = tested on: cells from mice lacking both ERα and ERβ (DERKO); conditions: cited from earlier work
[3] = tested on: calvaria-derived murine osteoblastic cells; assay: Etoposide-induced apoptosis of calvaria-derived osteoblastic cells; assay type: cell-based, mouse; conditions: for difference in potency in osteoblasts from one sex versus the other: cell preparations from females or males; for etoposide-induced apoptosis in primary cultures of osteoblasts: cells from female or male mice, dose dependent manner; for effect of synthesis inhibitor on the protective effect of E2 on etoposide-induced apoptosis: murine calvaria derived osteoblasts, doses not affecting cell viability, data not shown
Description: HeLa cells were co-transfected with reporter constructs in which SRE or AP-1 drive the expression of secreted alkaline phosphatase (SEAP), along with the wild type ERα (A and B); or its ligand binding domain (E), or E fused to a membrane (E-Mem) or nuclear (E-Nuc) localization sequence (A). A dominant negaitve (dn) MEK or dn Jnk were also introduced into a subset of the ERα transfected cells. […] In FIGS. 1A and 1B, 100% indicates activity in vehicle treated cells. (C) HeLa cells were co-transfected with the ERα and nEGFP and wild type or dn mutants of the indicated transcription factors. […] (D) HeLa cells (upper panel) were transiently co-transfected with the ERα, a nonphosphorylatable dn mutant of Bad. Calvaria-derived murine osteoblastic cells (lower panel) were pre-treated with the P13K inhibitor wortmannin. Cells were then treated as in (C). […] (E) Proposed model for a kinase-mediated non-genotropic regulation of gene transcription and apoptosis by sex steroids.
as §1, §2

[4] = tested on: OVX or ORX Swiss Webster mice; assay: Gonadectomized (OVX or ORX) Swiss Webster mice with 60-day slow release pellets: bone and reproductive tissues; assay type: in vivo, mouse; conditions: for gonadectomy-induced changes (osteoblast apoptosis, loss of BMD, osteoblastogenesis and osteoclastogenesis): replacement dose pellets (E2 0.025 mg, DHT 10 mg), OVX or ORX, irrespective of sex
Protocol: as §1
FIG. 9 illustrates the equivalence of the skeletal actions of estrogens and androgens in female and male mice. […] Six weeks later, osteoblast apoptosis in histologic sections of the vertebrae (A), osteoblastogenesis and osteoclastogenesis in ex vivo bone marrow cultures (B and C), and serum osteocalcin concentration (D) were determined. Bars indicate means±SD, *p<0.05 vs OVX or ORX.
Global, spine and hindlimb BMD was determined at both 4 and 6 weeks later in the experiment with the 8 month old females, and at 6 weeks only in the experiments with the 6 month old females and males (A, B and C). The 6 week BMD data in females (B) represent pooled values from the two experiments with the 6- and the 8-month old mice.
Longitudinal undecalcified sections of the distal femur are shown in (B). […] Osteoblast apoptosis in sections of L1-L4 vertebrae from females (8 month old) and males (C).
Histomorphometric analysis of L1-L4 vertebrae from 6 month old females (A-F) and pooled serum osteocalcin levels from the 6 and 8 month old females (G). […] The ANGELS compounds described herein are useful for maintaining and/or increasing bone mass and/or strength and/or density in mammals. Mammals, preferably humans, in need of such compounds can include those suffering from such conditions as female osteoporosis (post menopausal), male osteoporosis, glucocorticoid-induced osteoporosis, immobilization and aging-related osteoporosis, idiopathic or juvenile osteoporosis, transplantation-related osteoporosis, and alveolar ridge bone loss. In addition, the compounds described herein are particularly useful for administration to subjects that are unable or unwilling to tolerate therapies that have a masculinizing or feminizing effect. For example, subjects such as breast cancer patients (especially those with bone metastasis on gonadotropin […] hormone (GnRH) or ovariectomized), prostrate cancer patients (especially those on GnRH/castration therapy), and myeloma/lymphoma patients are frequently poor candidates for treatment with estrogen or androgens because of the risk of a recurrence of the underlying condition, e.g., cancer.
Wet uterine (A) or seminal vesicle weight (B) of female and male mice described in FIG. 11. […] Note the following morphologic differences in the uteri of OVX- and OVX+4-estren-3α,17β-diol-treated mice as compared to uteri from sham-operated and OVX+E2-treated mice: thin and atrophic columnar epithelium; compact stroma; decreased number of glands; decreased nucleus to cytoplasmic ratio in the columnar epithelial, endometrial stroma, and myometrial cells; and absence of mitotic activity. (D) Proliferation of MCF-7 cells was determined by ^3H-thymidine uptake.
For these studies, mature Swiss Webster mice (8 month old), n=8-10 per group, were sham-operated or gonadectomized (GNDX). […]

[5] = tested on: DERKO mice; conditions: mouse, in vivo; cited from earlier work
[6] = biological target: T1, ERα (Homo sapiens, UniProt P03372); assay: SRE-SEAP and AP-1-SEAP reporter assays in HeLa cells transfected with ERα; assay type: cell-based; conditions: steroids 10^−8 M for 15 minutes (E2 as little as five minutes), SEAP six hours later
T1 construct: HeLa cells transfected with the full length ERα; expressed in transfected cells; host or cells: HeLa
Protocol: HeLa cells were co-transfected with reporter constructs in which SRE or AP-1 drive the expression of secreted alkaline phosphatase (SEAP), along with the wild type ERα (A and B); or its ligand binding domain (E), or E fused to a membrane (E-Mem) or nuclear (E-Nuc) localization sequence (A). A dominant negaitve (dn) MEK or dn Jnk were also introduced into a subset of the ERα transfected cells. Cells were exposed to vehicle or the indicated steroids (10^−8M) for 15 minutes. The steroid containing media were then removed, the cells were washed twice, and the cultures were continued in fresh medium without steroids. Supernatants were collected six hours later and SEAP activity was assayed. In FIGS. 1A and 1B, 100% indicates activity in vehicle treated cells. (C) HeLa cells were co-transfected with the ERα and nEGFP and wild type or dn mutants of the indicated transcription factors. […] (D) HeLa cells (upper panel) were transiently co-transfected with the ERα, a nonphosphorylatable dn mutant of Bad. […] Cells were then treated as in (C).
Transient transfections and reporter assays: HeLa cells were transfected using Lipofectamine Plus (Life Technologies Inc.). For reporter assays (luciferase or secreated alkaline phosphatase SEAP), serum-starved cells were treated with the indicated steroids for 15 min after which the steroid-containing media were removed, cells washed twice with 1% BSA in PBS, and fresh media without steroid were added. SEAP or luciferase assays were performed 6 h later using the Great EscAPe SEAP Chemiluminescence Kit (Clontech, Palo Alto, Calif.) or the dual luciferase Kit (Promega, Madison, Wis.), respectively, according to the manufacturer's instructions. Both reporter activities were normalized to renilla luciferase activity.

[7] = tested on: Bad; assay: E2-induced phosphorylation of Bad; assay type: cell-based; conditions: studies not shown (Kousteni et al, 2002)

T1 sequence (P03372 whole entry): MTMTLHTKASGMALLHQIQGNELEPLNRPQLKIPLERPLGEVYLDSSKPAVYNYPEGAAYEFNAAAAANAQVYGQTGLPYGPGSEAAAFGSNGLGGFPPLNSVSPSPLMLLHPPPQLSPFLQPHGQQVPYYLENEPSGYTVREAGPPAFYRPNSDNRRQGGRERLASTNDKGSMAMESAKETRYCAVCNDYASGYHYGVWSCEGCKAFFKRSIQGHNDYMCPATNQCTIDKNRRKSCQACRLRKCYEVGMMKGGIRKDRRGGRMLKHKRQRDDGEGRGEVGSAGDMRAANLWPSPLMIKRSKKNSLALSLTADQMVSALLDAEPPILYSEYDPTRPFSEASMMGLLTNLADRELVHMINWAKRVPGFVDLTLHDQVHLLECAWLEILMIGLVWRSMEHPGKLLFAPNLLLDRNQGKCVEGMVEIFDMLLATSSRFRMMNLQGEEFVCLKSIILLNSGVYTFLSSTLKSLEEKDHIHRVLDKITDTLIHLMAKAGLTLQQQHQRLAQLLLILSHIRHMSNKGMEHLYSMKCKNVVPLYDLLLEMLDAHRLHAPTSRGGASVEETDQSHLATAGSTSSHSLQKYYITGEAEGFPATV

## Cc1ccc(-c2nn(C(C)(C)C)c3ncnc(N)c23)cc1 [PP1]
[1]; pre-treatment for 1 hour prior to E2 or DHT
  effect of inhibitor on the pro-apoptotic effects of the sex steroids and 4-estren-3α,17β-diol on osteoclasts: abrogated

## C[C@]12CC[C@@H]3c4ccc(O)cc4C[C@@H](CCCCCCCCC[S+]([O-])CCCC(F)(F)C(F)(F)F)[C@H]3[C@@H]1CC[C@@H]2O (stereo partly drawn) [ICI 182,780]
[2]
  effect of antagonist on the effects of E2 in the DERKO cells: prevented
[1]
  effect of antagonist on the effects of E2 or DHT on the lifespan of osteoclasts: blocked
[3]
  effect of antagonist on the effects of E2 or DHT on the lifespan of osteoblasts: blocked

## C[C@]12CCC(=O)C[C@@H]1CC[C@@H]1[C@@H]2CC[C@]2(C)[C@@H](O)CC[C@@H]12 [DHT, dyhydrotestosterone]
[4]; L5, ORX
  bone compression strength in the vertebrae, male mice: equally effective
[4]; ORX males, 6 weeks
  BMD values in the spine versus the untreated ORX group: not
[4]; OVX females, pellets DHT 10 mg or 4-estren-3α,17β-diol 7.6 mg
  wet uterine weight: did restore
[4]
  gonadectomy-induced changes (osteoblast apoptosis, loss of BMD, osteoblastogenesis and osteoclastogenesis): effectively prevented
[1]
  difference in potency in osteoclasts from females and males: no difference
[3]
  difference in potency in osteoblasts from one sex versus the other: no difference
  etoposide-induced apoptosis in primary cultures of osteoblasts: attenuated etoposide-induced apoptosis

## Cc1c2oc3c(C)ccc(C(=O)N[C@@H]4C(=O)N[C@H](C(C)C)C(=O)N5CCC[C@H]5C(=O)N(C)CC(=O)N(C)[C@@H](C(C)C)C(=O)O[C@@H]4C)c3nc-2c(C(=O)N[C@@H]2C(=O)N[C@H](C(C)C)C(=O)N3CCC[C@H]3C(=O)N(C)CC(=O)N(C)[C@@H](C(C)C)C(=O)O[C@@H]2C)c(N)c1=O [actinomycin D] (I: T[dV]P[Sar][NMeV] / II: T[dV]P[Sar][NMeV]; ester I:1-I:C, II:1-II:C; linker I:N-II:N via Actinocin(9to1))
[3]
  effect of synthesis inhibitor on the protective effect of E2 on etoposide-induced apoptosis: abrogated

## C[S+]([O-])c1ccc(-c2nc(-c3ccncc3)c(-c3ccc(F)cc3)[nH]2)cc1 (stereo not drawn) [SB203580]
[3]; FIG. 1D, pre-treated calvaria-derived murine osteoblastic cells
  effect of kinase inhibitor on the anti-apoptotic effect of E2 and of 4-estren-3α,17β-diol: not

## C[C@@H]1C[C@@H]([C@H](O)CC2CC(=O)NC(=O)C2)C(=O)[C@@H](C)C1 [cyclohexamide]
[3]
  effect of synthesis inhibitor on the protective effect of E2 on etoposide-induced apoptosis: abrogated

## C[C@]12CC[C@@H]3c4ccc(O)cc4CC[C@H]3[C@@H]1CC[C@@H]2O [E2, 17β-estradiol]
[4]; 4-estren-3α,17β-diol 7.6 mg pellet, E2 pharmacologic dose 100× the replacement dose
  effect on the bone marrow cavity: closing the bone marrow cavity
[4]; 4-estren-3α,17β-diol at 300× ERT versus vehicle or E2 1× ERT, E2 at 100× ERT
  longitudinal undecalcified sections of the distal femur: cancellous sclerosis
[4]; ORX males, pellets E2 0.025 mg or 4-estren-3α,17β-diol 7.6 mg
  seminal vesicle weight: failed to restore
[4]; as compared to the OVX group
  osteoclast number: suppressed
  rate of bone formation: suppressed
[4]
  gonadectomy-induced changes (osteoblast apoptosis, loss of BMD, osteoblastogenesis and osteoclastogenesis): effectively prevented
[2]
  ERK phosphorylation in DERKO cells: stimulates
  osteoblast apoptosis in DERKO cells: prevents
  osteoclast apoptosis in DERKO cells: stimulates
[1]
  difference in potency in osteoclasts from females and males: no difference
[5]
  bone loss following OVX in DERKO mice: prevented
[3]
  difference in potency in osteoblasts from one sex versus the other: no difference
  etoposide-induced apoptosis in primary cultures of osteoblasts: attenuated etoposide-induced apoptosis

## c1cn[nH]c1 [pyrazole]
[6]
  AP-1-dependent transcriptional activity (AP-1-SEAP): not
  SRE-dependent transcriptional activity (SRE-SEAP): not

## COc1cccc(-c2cc(=O)c3ccccc3o2)c1N [PD98059]
[7]
  effect of inhibitor on E2-induced phosphorylation of Bad: abolished
